target: Complement factor D (Homo sapiens, UniProt P00746); test: Human Factor D Assay: Human Factor D (purified from human serum, Complement Technology, Inc.) at 80 nM final concentration is incubated with test compound at various concentrations for 5 min at room temperature in 50 mM Tris, 1M NaCl, pH 7.5. A synthetic substrate Z-L-Lys-SBzl and DTNB (Ellman's reagent) are added to final concentrations of 100 µM each. Absorbance at 405 nm (A405) is recorded at 30 second intervals for 30 minutes using a microplate spectrophotometer. IC50 values are calculated by nonlinear regression of Complement Factor D reaction rates as a function of test compound concentration.
Sequence (P00746 whole entry): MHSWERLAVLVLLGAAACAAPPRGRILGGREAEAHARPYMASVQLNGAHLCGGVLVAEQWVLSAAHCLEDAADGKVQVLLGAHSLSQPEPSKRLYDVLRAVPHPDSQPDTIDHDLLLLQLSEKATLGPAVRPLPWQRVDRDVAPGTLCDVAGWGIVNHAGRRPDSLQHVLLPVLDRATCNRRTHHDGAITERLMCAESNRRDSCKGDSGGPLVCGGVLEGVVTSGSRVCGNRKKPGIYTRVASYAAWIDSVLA

Compound | IC50
CC(=O)c1nn(CC(=O)N2[C@H]3C[C@]4(C[C@@H]24)CN2CC(CCCOCc4ccc(Br)nc4NC3=O)C2)c2c(C)cc(-c3cnc(C)nc3)cc12 | < 1000 nM
CC(=O)c1nn2c3c(cc(-c4cnc(C)nc4)cc13)CC/C=C\CCCC(=O)NC[C@@]13C[C@@H](C(=O)Nc4nc(Br)ccc4C)N(C(=O)C2)[C@@H]1C3 | < 1000 nM
CC(=O)c1nn(CC(=O)N2[C@H]3C[C@]4(C[C@@H]24)CN(C)CCCC/C=C\Cc2ccc(Br)nc2NC3=O)c2c(CF)cc(-c3cnc(C)nc3)cc12 | < 1000 nM
CC(=O)c1nn2c3c(cc(-c4cnc(C)nc4)cc13)C/C=C\CCCC(=O)NC[C@@]13C[C@@H](C(=O)Nc4nc(C(F)(F)F)ccc4C)N(C(=O)C2)[C@@H]1C3 | < 1000 nM
CC(=O)c1nn2c3c(cc(-c4cnc(C)nc4)cc13)C/C=C\CCCC(=O)NC[C@@]13C[C@@H](C(=O)Nc4nc(Br)ccc4C)N(C(=O)C2)[C@@H]1C3 | < 1000 nM
CC(=O)c1nn(CC(=O)N2[C@H]3C[C@]4(C[C@@H]24)CN(C)CC(O)C(O)COCc2ccc(Br)nc2NC3=O)c2cnc(-c3cnc(C)nc3)cc12 (stereo not given in full) | < 1000 nM
C=C1COCc2ccc(Br)nc2NC(=O)[C@@H]2C[C@]3(C[C@H]3N2C(=O)Cn2nc(C(C)=O)c3cc(-c4cnc(C)nc4)ncc32)Cn2cc1cn2 | < 1000 nM
CC(=O)c1nn(CC(=O)N2[C@H]3C[C@@]4(/C=C\CCCCN(C)C(=O)Cc5ccc(Br)nc5NC3=O)C[C@@H]24)c2ccc(-c3cnc(C)nc3)cc12 | < 1000 nM
CC(=O)N[C@H]1C/C=C\COCc2ccc(Br)nc2NC(=O)[C@@H]2C[C@@]3(CNC1=O)C[C@H]3N2C(=O)Cn1nc(C(C)=O)c2cc(-c3cnc(C)nc3)ccc21 | < 1000 nM
CC(=O)c1nn2c3c(cc(-c4cnc(C)nc4)cc13)CCCCCC/C=C\c1cn(nn1)C[C@@]13C[C@@H](C(=O)Nc4nc(Br)ccc4C)N(C(=O)C2)[C@@H]1C3 | < 1000 nM

Reference: ChEMBL document CHEMBL5728699, “Macrocyclic compounds for treatment of medical disorders” (2021)
